Activity calls are given as the source filed them.
Experiments:
[1] = biological target: T1, Oxysterols receptor LXR-beta (Homo sapiens, UniProt P55055); type: functional, cell-based;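 further: agonist activity at LXR measured by a cell-based luminescence readout across a dose range, run as a counterscreen for daf-12 agonists; HEK293 cells with Gal4-LXR fusion and GAL4-driven luciferase reporter; potency for activation of Gal4-LXR reporter so compounds are agonists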
T1 sequence (P55055 whole entry): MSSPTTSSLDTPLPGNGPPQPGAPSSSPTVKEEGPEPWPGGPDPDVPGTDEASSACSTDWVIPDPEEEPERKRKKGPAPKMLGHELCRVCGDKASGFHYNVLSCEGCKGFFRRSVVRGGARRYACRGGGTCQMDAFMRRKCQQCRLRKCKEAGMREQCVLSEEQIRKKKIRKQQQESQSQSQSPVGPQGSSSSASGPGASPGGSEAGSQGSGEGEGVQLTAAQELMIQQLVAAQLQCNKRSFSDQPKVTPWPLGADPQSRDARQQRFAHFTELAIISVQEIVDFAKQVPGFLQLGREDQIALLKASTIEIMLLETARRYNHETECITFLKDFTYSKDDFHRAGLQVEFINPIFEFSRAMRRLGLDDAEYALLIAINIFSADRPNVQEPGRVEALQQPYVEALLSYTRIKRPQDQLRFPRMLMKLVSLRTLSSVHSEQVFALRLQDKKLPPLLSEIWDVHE

Vero = assay: Vero cell toxicity, dose response, cytotoxicity control, plate reader, cherry-pick samples (AID 687020); type: functional, cell-based; conditions: Chlorocebus sabaeus
Nonstructural protein 1 = Nonstructural protein 1 (Influenza A virus, UniProt Q194T2); type: functional, Influenza A virus (A/California/07/2009(H1N1))
Sequence of Nonstructural protein 1 (Q194T2 whole entry): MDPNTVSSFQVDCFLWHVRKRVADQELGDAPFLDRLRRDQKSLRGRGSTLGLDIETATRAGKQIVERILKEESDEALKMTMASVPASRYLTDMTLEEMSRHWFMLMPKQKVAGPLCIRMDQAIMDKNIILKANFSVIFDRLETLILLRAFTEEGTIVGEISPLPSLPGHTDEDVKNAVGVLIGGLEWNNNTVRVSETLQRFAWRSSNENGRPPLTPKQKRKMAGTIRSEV

[2] = biological target: Histone-lysine N-methyltransferase NSD2 (Homo sapiens, UniProt O96028); type: biochemical
Sequence of Histone-lysine N-methyltransferase NSD2 (O96028 whole entry): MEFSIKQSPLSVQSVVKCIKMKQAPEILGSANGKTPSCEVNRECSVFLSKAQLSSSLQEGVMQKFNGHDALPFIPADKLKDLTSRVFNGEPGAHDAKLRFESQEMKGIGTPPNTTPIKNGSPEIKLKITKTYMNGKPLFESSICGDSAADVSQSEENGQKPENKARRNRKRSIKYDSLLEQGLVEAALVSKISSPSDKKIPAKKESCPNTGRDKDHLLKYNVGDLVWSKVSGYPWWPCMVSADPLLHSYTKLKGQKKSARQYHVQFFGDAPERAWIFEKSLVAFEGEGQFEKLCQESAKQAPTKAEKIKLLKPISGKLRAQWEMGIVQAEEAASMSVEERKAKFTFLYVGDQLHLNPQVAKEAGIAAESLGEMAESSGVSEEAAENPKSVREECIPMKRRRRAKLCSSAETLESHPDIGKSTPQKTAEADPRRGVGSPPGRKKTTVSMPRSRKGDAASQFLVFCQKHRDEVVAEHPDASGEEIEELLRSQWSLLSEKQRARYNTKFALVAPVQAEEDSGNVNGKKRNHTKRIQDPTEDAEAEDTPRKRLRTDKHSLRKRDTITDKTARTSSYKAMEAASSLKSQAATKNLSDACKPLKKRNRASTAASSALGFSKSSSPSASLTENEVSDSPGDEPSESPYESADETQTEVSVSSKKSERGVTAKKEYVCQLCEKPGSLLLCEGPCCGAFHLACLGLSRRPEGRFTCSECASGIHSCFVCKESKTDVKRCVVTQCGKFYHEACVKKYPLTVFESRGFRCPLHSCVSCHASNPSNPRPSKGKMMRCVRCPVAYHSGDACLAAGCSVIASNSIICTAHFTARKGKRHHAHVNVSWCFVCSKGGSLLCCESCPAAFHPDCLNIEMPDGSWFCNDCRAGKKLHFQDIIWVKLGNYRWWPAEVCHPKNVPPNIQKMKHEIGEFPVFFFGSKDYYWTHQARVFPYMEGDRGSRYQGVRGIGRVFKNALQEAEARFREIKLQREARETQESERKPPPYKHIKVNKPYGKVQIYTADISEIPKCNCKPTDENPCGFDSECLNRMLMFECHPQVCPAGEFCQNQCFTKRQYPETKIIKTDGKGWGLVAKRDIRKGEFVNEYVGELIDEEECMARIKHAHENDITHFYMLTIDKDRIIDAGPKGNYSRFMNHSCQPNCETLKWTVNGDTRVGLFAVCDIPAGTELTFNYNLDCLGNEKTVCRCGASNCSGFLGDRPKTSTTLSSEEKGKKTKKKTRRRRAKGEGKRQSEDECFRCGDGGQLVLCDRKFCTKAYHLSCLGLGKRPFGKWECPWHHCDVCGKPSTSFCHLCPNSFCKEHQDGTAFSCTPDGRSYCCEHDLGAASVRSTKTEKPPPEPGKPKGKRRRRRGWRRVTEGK

[3] = human group III sPLA2 inhibitors, dose response, biochemical, QFRET, IC50 (AID 743457);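 further: green fluorescence rise as the enzyme cleaves BODIPY PC-A2 in liposomes; potency for inhibition of the enzyme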
[4] = biological target: Peroxisome proliferator-activated receptor gamma/Nuclear receptor coactivator 1 (Homo sapiens, UniProt P37231); assay: (§1) TR-FRET dose response biochemical High Throughput Screening assay for agonists of the steroid receptor coactivator 1 (SRC-1) recruitment by the peroxisome proliferator-activated receptor gamma (PPAR gamma): non-selective agonists. [Related pubchem assays (depositor defined):AID1300, AID1808, AID504735, AID631]; type: protein assay
Sequence of Peroxisome proliferator-activated receptor gamma/Nuclear receptor coactivator 1 (P37231 whole entry): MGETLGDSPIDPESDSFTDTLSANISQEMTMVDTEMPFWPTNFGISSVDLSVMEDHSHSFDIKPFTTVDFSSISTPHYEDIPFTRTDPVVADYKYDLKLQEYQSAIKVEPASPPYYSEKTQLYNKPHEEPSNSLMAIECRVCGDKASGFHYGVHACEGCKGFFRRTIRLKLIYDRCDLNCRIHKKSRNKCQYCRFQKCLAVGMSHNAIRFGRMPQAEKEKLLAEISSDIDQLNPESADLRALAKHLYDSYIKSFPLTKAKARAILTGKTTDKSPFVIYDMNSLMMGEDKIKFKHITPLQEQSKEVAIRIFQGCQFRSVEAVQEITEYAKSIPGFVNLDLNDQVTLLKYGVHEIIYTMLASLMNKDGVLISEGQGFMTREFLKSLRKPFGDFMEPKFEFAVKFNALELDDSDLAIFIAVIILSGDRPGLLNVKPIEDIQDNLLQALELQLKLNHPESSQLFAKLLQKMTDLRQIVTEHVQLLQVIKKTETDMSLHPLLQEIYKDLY
Sequence of Peroxisome proliferator-activated receptor gamma/Nuclear receptor coactivator 1 (Q15788 whole entry, further chain): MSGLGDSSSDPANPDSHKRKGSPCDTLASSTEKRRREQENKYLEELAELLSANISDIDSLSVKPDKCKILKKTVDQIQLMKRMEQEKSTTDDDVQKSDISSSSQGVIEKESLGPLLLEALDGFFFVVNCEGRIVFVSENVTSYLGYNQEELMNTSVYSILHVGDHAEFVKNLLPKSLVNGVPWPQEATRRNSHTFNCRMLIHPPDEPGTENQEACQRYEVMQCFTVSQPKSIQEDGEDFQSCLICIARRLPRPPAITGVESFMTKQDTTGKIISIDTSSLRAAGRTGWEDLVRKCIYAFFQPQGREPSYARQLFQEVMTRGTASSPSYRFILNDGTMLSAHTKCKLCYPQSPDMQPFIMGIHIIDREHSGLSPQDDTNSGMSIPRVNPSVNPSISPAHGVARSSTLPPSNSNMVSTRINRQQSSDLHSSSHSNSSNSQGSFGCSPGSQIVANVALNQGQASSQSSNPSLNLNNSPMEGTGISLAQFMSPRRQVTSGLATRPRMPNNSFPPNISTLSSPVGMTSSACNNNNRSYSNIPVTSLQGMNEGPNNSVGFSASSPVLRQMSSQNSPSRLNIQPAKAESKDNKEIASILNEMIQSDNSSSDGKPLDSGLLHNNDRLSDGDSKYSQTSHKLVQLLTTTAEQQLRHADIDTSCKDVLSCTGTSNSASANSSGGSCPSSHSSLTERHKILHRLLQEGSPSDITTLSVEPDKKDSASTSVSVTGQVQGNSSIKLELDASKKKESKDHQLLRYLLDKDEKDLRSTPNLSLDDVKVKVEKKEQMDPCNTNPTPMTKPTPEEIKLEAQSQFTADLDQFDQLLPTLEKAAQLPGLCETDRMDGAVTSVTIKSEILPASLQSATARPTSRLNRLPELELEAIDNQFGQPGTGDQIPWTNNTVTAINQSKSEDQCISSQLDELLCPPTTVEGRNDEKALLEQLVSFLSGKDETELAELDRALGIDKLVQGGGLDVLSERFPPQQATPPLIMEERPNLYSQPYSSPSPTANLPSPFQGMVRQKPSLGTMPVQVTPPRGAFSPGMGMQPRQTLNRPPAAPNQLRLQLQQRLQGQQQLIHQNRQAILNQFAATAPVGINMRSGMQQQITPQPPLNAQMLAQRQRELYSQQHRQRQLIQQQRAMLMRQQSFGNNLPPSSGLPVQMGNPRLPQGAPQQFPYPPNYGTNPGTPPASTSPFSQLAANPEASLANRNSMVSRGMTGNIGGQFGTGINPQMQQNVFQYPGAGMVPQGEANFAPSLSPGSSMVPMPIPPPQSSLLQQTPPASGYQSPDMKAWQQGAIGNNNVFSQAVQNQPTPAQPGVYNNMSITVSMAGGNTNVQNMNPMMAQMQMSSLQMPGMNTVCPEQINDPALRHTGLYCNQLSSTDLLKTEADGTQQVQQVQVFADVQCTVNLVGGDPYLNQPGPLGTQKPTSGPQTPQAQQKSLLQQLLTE

[5] = biological target: Peroxisome proliferator-activated receptor gamma/Nuclear receptor coactivator 3 (Homo sapiens, UniProt P37231); assay: as §1, with “3 (SRC-3)” for “1 (SRC-1)”, “assays: 1301 (Confirmation screen.), 1048 (Primary screen.)]” for “assays (depositor defined):AID1300, AID1808, AID504735, AID631]”; type: functional
[6] = biological target: Peroxisome proliferator-activated receptor gamma/Nuclear receptor coactivator 2 (Homo sapiens, UniProt P37231); assay: TR-FRET dose response biochemical High Throughput Screening assay for agonists of the steroid receptor coactivator 2 (SRC-2) recruitment by the peroxisome proliferator-activated receptor gamma (PPAR gamma): non-selective agonists. [Related pubchem assays: 1297, 1032 ]; type: functional
Beta-galactosidase = Beta-galactosidase (Escherichia coli, UniProt Q8VNN2); assay: Dose response counterscreen for EBI2 assay utilizing the enzyme, b-galactosidase.; type: functional
Sequence of Beta-galactosidase (Q8VNN2 whole entry): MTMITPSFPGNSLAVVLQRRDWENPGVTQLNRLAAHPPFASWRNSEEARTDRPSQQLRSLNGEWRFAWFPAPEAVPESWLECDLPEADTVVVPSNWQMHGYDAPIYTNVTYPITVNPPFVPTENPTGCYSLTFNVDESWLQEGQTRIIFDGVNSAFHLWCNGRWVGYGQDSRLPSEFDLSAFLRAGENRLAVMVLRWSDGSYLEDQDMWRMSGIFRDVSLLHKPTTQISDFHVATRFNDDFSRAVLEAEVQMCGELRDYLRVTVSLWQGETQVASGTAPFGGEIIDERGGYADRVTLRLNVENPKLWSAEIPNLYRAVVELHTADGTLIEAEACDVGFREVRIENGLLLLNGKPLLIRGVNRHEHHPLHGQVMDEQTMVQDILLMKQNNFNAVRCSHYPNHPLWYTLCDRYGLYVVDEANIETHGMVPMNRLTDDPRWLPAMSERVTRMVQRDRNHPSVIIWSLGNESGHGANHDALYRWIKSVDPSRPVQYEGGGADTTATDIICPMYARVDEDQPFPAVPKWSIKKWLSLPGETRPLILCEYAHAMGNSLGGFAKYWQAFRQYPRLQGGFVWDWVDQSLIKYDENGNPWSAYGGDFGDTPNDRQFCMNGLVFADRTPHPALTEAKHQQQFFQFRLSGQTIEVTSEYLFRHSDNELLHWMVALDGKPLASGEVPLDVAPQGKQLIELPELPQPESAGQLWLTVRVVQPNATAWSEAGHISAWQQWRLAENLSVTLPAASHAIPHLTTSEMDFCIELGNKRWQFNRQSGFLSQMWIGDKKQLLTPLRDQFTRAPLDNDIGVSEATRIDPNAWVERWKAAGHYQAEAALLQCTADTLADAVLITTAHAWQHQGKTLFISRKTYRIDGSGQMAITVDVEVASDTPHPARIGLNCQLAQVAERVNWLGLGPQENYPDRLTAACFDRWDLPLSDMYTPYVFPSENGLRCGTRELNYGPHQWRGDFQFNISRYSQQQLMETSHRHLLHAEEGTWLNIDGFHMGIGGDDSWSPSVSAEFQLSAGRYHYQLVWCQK

[7] = inhibitors of CMV-promoter luciferase reporter, dose response, counter-screen for Pax8 inhibitor project, cell-based, HEK293, luminescence, dry powder (AID 743020); type: functional
[8] = HEK293T cytotoxicity, dose response, cytotoxicity control for miR-122 modulator project, cell-based, activator set, cherry-pick (AID 720690); type: functional;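 further: HEK293T human cells scored for general mammalian cytotoxicity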
[9] = T. cruzi growth inhibition in host cells, dose response, cell-based, plate reader, dry powder, set 2 (AID 652275); type: functional
cells [10] = type: functional, cell-based
cells [11] = type: functional, cell-based; remark: listed apart in the source

SMILES: c1ccc(N=Nc2ccc(C3=NCCO3)cc2)cc1
- EC50 [1]: > 67.6 µM (inactive)

SMILES: O=C(CN1CCC(O)(c2cccc(C(F)(F)F)c2)CC1)NCCc1ccccc1
- AC50 (Vero): 11.6 µM (active)

SMILES: Cc1ccc(N2CCOCC2)c2c1C(=O)c1ccccc1C2=O
- IC50 (Nonstructural protein 1): 14.5 µM (active)
- AC50 [2]: 10.5 µM (active)
- IC50 [3]: > 122 µM (inactive)

SMILES: CNC(=S)N1N=C(c2ccc(Br)cc2)CC1c1ccc(OC)cc1 (stereo not given)
- EC50 [4]: 14.5 µM (inactive)
- EC50 [5]: 49.9 µM (not active)
- EC50 [6]: 17.3 µM (not active)
- IC50 (Beta-galactosidase): > 80 µM (inactive)

SMILES: CC1CCN(CCOc2ccc(OCc3ccccc3)cc2)CC1
- AC50 (Vero): 25.9 µM (active)
- AC50 [7]: < 9.29 µM (active)

SMILES: CCCNC(=O)C[C@@H]1CC[C@H]2[C@H](COc3ccc(NC(=O)c4ccc(C(F)(F)F)cc4)cc3C(=O)N2C)O1
- AC50 [8]: 31.5 µM (active)

SMILES: CC(C)N1C[C@@H](CN(C)Cc2ccc(Cl)cc2)Oc2c(NC(=O)c3ccncc3)cccc2C1=O
- AC50 [9]: 0.0045 µM (active)

SMILES: O=C(Nc1ccccc1)Nc1nncs1
- IC50 (cells [10]): > 29.9 µM (inactive)
- EC50 (cells [11]): > 29.9 µM (inactive)

Source: ChEMBL document CHEMBL1201862, “PubChem BioAssay data set” (2004)
